Laboratory results from US20240336868A1, “COMPOSITIONS COMPRISING ADAMANTYL ESTER-CONTAINING COMPOUNDS” (The Procter & Gamble Company, priority 2023, published 2024).

Assay type: physicochemical
Conditions: for Head-space: headspace above about 2E+06 ng/mL solution in isopropyl myristate (IPM); for Head-space / Air/IPM partition coef: 30° C., average of three replicates; for Air/IPM partition coef: in isopropyl myristate (IPM)
Method: Perfume headspace data is collected for various materials according to the method provided below.
The partition coefficients are calculated by determining the amount of PRM in the headspace above a solution with a known concentration using a GC/FID-MS (Agilent 7890 and 5977A MSD) with a thermal desorption unit (Gerstel MPS2) and Dynamic Headspace Sampler (Gerstel DHS). This technique allows for automated headspace collections using the MultiPurposeSampler (MPS). The PRMs of interest are prepared at a known concentration in isopropyl myristate (IPM) or propylene glycol monomethyl ether (DPM), and 1 mL is pipetted in a 20 mL headspace vial.
DHS Conditions: The sample is tempered in the unit at 30° C. A helium stream at 10 mls/min purges 20 mL of headspace containing the analytes above the sample onto the sorbent tube (TDU) containing 25 mg of TenaxTA 35/60 (Restek cat #25701).
TDU conditions: The sorbent tube is desorbed with a program starting at 30° C. solvent vent for 2 min then ramped at 720° C./min to 270° C. and held for 8 min. The analytes are refocused on a glass bead liner at −60° C. then desorbed at a rate of 12° C./s to 270° C. onto the GC column.
GC/MS conditions: Agilent 122-5532 UI column of 30 m×250 μm×0.25 μm and a flow rate of 1.5 mL/min is utilized. A temperature program of 50° C. to 280° C. with a 2 min hold and a ramp rate of 12° C./min is suitable. Scan or SIM mode MSD parameters with a solvent delay for the DPM are applied to achieve appropriate detection.
Analytical standards can be obtained from AK Scientific, Inc., Union City, CA 94587, USA. A stock solution is prepared at approximately 0.5 g/L. The stock solution is then diluted to 4 to 5 concentrations ranging from approximately 0.05 g/L to 0.00005 g/L. These standard solutions are then analyzed by GC/MS. This analysis is performed by using the same TDU desorption and GC/MS conditions described above with a 1 μL liquid injection onto the TDU tube instead of the DHS collection. The amount injected on column and the area responses of the target m/z are utilized to create a calibration plot with a linear fit.
Quantification of the headspace is performed by the PRM target m/z area response of the perfume component and the linear equation of the calibration plot.
Perfume headspace data is collected for various materials according to the Headspace Method provided above in the Test Methods section. The Air/Solvent partition coefficients are determined and indexed accordingly (e.g., where the partition coefficient for OTNE is set at 1.00).
Results for 2-adamantyl propanoate, 2-adamantyl acetate, and 2-methyl-2-adamantyl acetate in isopropyl myristate (IPM) are provided below in Table 1.

| OTNE Indexed Air/IPM partition coefficient | Head-space | Air/IPM partition coef | Compound |
| --- | --- | --- | --- |
| 1.00 | 0.0216 ng/mL | 1.04E−08 ng/mL in air per ng/mL in IPM | CC(=O)C1(C)CC2=C(CCCC2(C)C)CC1C (stereo not drawn) [OTNE, 1-(1,2,3,4,5,6,7,8-Octahydro-2,3,8,8-tetramethyl-2-naphthalenyl) ethanone, reference compound] |
| 5.47 | 0.1182 ng/mL | 5.71E−08 ng/mL in air per ng/mL in IPM | CCC(=O)OC1C2CC3CC(C2)CC1C3 (stereo not drawn) [2-adamantyl propanoate] |
| 8.67 | 0.1874 ng/mL | 9.05E−08 ng/mL in air per ng/mL in IPM | CC(=O)OC1(C)C2CC3CC(C2)CC1C3 (stereo not drawn) [2-methyl-2-adamantyl acetate] |
| 8.30 | 0.1793 ng/mL | 8.66E−08 ng/mL in air per ng/mL in IPM | CC(=O)OC1C2CC3CC(C2)CC1C3 (stereo not drawn) [2-adamantyl acetate] |
